In patent US20090123389A1, “Methods for modulating Th17 cell development in the treatment and prevention of cellulite” (priority 2007, published 2009):

Assays:
[1] = system: mTOR; experiment: Signaling downstream of mTOR in fibroblasts; assay type: cell-based
[2] = system: CD4+ CD25− T cells; experiment: DNA microarray transcriptional profile of T cells activated in Th17-priming conditions; assay type: cell-based, mouse; conditions: 10 nM

O=C(CC1NCCCC1O)Cn1cnc2cc(Br)c(Cl)cc2c1=O (racemic) [HF, 7-bromo-6-chloro-3-[3-(3-hydroxy-2-piperidinyl)-2-oxopropyl]-4(3H)-quinazolinone]
signaling downstream of mTOR in fibroblasts [1]: did not inhibit | annotated genes differentially expressed at both time points in HF- versus MAZ1310-treated cells ([2]; 3 and 6 hours): 81 | Aars transcript fold increase, HF vs. MAZ1310 ([2]; 3 hr, Th17-priming conditions): 2.7 ± 0.4 fold | Aff1 transcript fold increase, HF vs. MAZ1310 ([2]; 3 hr, Th17-priming conditions): 2.3 ± 0.4 fold | Aldh18a1 transcript fold increase, HF vs. MAZ1310 ([2]; 3 hr, Th17-priming conditions): 2.1 ± 0.5 fold | Asns transcript fold increase, HF vs. MAZ1310 ([2]; 3 hr, Th17-priming conditions): 6.1 ± 1.2 fold | Atf3 transcript fold increase, HF vs. MAZ1310 ([2]; 3 hr, Th17-priming conditions): 3.0 ± 0.1 fold | Atf5 transcript fold increase, HF vs. MAZ1310 ([2]; 3 hr, Th17-priming conditions): 2.4 ± 0.1 fold | Cars transcript fold increase, HF vs. MAZ1310 ([2]; 3 hr, Th17-priming conditions): 2.2 ± 0.4 fold | Cd274 transcript fold increase, HF vs. MAZ1310 ([2]; 3 hr, Th17-priming conditions): 2.1 ± 0.2 fold | Cebpb transcript fold increase, HF vs. MAZ1310 ([2]; 3 hr, Th17-priming conditions): 3.9 ± 0.5 fold | Cebpg transcript fold increase, HF vs. MAZ1310 ([2]; 3 hr, Th17-priming conditions): 2.5 ± 0.5 fold | Chd2 transcript fold increase, HF vs. MAZ1310 ([2]; 3 hr, Th17-priming conditions): 2.2 ± 0.3 fold | Cldn12 transcript fold increase, HF vs. MAZ1310 ([2]; 3 hr, Th17-priming conditions): 3.2 ± 0.7 fold | Clic4 transcript fold increase, HF vs. MAZ1310 ([2]; 3 hr, Th17-priming conditions): 2.4 ± 0.2 fold | Cth transcript fold increase, HF vs. MAZ1310 ([2]; 3 hr, Th17-priming conditions): 2.2 ± 0.7 fold | Cxcl10 transcript fold increase, HF vs. MAZ1310 ([2]; 3 hr, Th17-priming conditions): 2.1 ± 0.3 fold | D8Ertd56e transcript fold increase, HF vs. MAZ1310 ([2]; 3 hr, Th17-priming conditions): 2.1 ± 0.3 fold | Ddit3 transcript fold increase, HF vs. MAZ1310 ([2]; 3 hr, Th17-priming conditions): 5.6 ± 1.1 fold | Eif4Ebp1 transcript fold increase, HF vs. MAZ1310 ([2]; 3 hr, Th17-priming conditions): 6.8 ± 1.8 fold | Gpt2 transcript fold increase, HF vs. MAZ1310 ([2]; 3 hr, Th17-priming conditions): 10.0 ± 1.2 fold | Herpud1 transcript fold increase, HF vs. MAZ1310 ([2]; 3 hr, Th17-priming conditions): 2.4 ± 0.3 fold | Icam1 transcript fold increase, HF vs. MAZ1310 ([2]; 3 hr, Th17-priming conditions): 2.0 ± 0.1 fold | Irf1 transcript fold increase, HF vs. MAZ1310 ([2]; 3 hr, Th17-priming conditions): 2.0 ± 0.3 fold | Lars transcript fold increase, HF vs. MAZ1310 ([2]; 3 hr, Th17-priming conditions): 2.3 ± 0.3 fold | Mpa2l transcript fold increase, HF vs. MAZ1310 ([2]; 3 hr, Th17-priming conditions): 2.3 ± 0.3 fold | Ncoa7 transcript fold increase, HF vs. MAZ1310 ([2]; 3 hr, Th17-priming conditions): 3.0 ± 0.3 fold | Nfkbiz transcript fold increase, HF vs. MAZ1310 ([2]; 3 hr, Th17-priming conditions): 2.0 ± 0.3 fold | Pck2 transcript fold increase, HF vs. MAZ1310 ([2]; 3 hr, Th17-priming conditions): 4.9 ± 0.8 fold | Pdcd1lg2 transcript fold increase, HF vs. MAZ1310 ([2]; 3 hr, Th17-priming conditions): 3.2 ± 0.7 fold | Phgdh transcript fold increase, HF vs. MAZ1310 ([2]; 3 hr, Th17-priming conditions): 3.8 ± 0.9 fold | Psat1 transcript fold increase, HF vs. MAZ1310 ([2]; 3 hr, Th17-priming conditions): 2.1 ± 0.5 fold | Psph transcript fold increase, HF vs. MAZ1310 ([2]; 3 hr, Th17-priming conditions): 3.5 ± 0.4 fold | Pvr transcript fold increase, HF vs. MAZ1310 ([2]; 3 hr, Th17-priming conditions): 2.0 ± 0.3 fold | Pycr1 transcript fold increase, HF vs. MAZ1310 ([2]; 3 hr, Th17-priming conditions): 4.6 ± 0.7 fold | Pycs transcript fold increase, HF vs. MAZ1310 ([2]; 3 hr, Th17-priming conditions): 2.1 ± 0.2 fold | Sars1 transcript fold increase, HF vs. MAZ1310 ([2]; 3 hr, Th17-priming conditions): 2.0 ± 0.3 fold | Sesn2 transcript fold increase, HF vs. MAZ1310 ([2]; 3 hr, Th17-priming conditions): 2.6 ± 0.3 fold | Slamf7 transcript fold increase, HF vs. MAZ1310 ([2]; 3 hr, Th17-priming conditions): 2.2 ± 0.4 fold | Slc1a4 transcript fold increase, HF vs. MAZ1310 ([2]; 3 hr, Th17-priming conditions): 3.2 ± 0.9 fold | Slc5a9 transcript fold increase, HF vs. MAZ1310 ([2]; 3 hr, Th17-priming conditions): 2.4 ± 0.3 fold | Slc7a3 transcript fold increase, HF vs. MAZ1310 ([2]; 3 hr, Th17-priming conditions): 2.0 ± 0.2 fold | Slc14a1 transcript fold increase, HF vs. MAZ1310 ([2]; 3 hr, Th17-priming conditions): 2.0 ± 0.1 fold | Trib3 transcript fold increase, HF vs. MAZ1310 ([2]; 3 hr, Th17-priming conditions): 7.1 ± 2.0 fold | Trim12 transcript fold increase, HF vs. MAZ1310 ([2]; 3 hr, Th17-priming conditions): 2.4 ± 0.1 fold | Vegfa transcript fold increase, HF vs. MAZ1310 ([2]; 3 hr, Th17-priming conditions): 3.2 ± 0.2 fold
